Experimental data published in patent publication US20160299149A1, “ASSAYS AND METHODS FOR CELL PROLIFERATION-TARGETED TREATMENT THERAPIES” (University of Central Florida Research Foundation, Inc., priority 2015, published 2016).
Like-named read-outs stand apart in the source and are kept apart here.

Legend:
melanoma cell lines = assay: NCI 60-cancer cell screen; assay type: cell-based; settings: for sensitivity of MALME-3M in NCI 60-cancer cell screen: MALME-3M (low Cav-1 and high Cav-2)
Text: (§1) Graphical bars extending to the right of the 0 growth percent line indicates growth inhibition by compound A of those specific cell lines.

MALME-3M cells = assay: Cytotoxicity IC50 in metastatic melanoma cells; assay type: cell-based
Text: as §1

L3.6pl cells [1] = assay: DFMO 48 h IC50 in L3.6pl cells; assay type: cell-based, human
Method: FIG. 19B provides a graphical illustration of the effect of scrambled siRNA vs. ATP13A3 siRNA on relative L3.6pl cell viability % when challenged with a 48 h IC50 dose of DFMO (8 mM) and a rescuing dose of Spd (1 μM).
FIG. 20B provides a graphical illustration of the effect of scrambled siRNA vs. ATP13A3 siRNA on relative L3.6pl cell viability % when challenged with a 48 h IC50 dose of DFMO (8 mM) and a rescuing dose of Spd (1 μM).

[2] = tested on: L3.6pl, Panc1, CHO and PanO2 cells; assay: Cell line sensitivity to DFMO and spermidine rescue challenge; assay type: cell-based
L3.6pl cells [3] = assay: Assay 2 with GW5074 PTI in L3.6pl cells; assay type: cell-based, human; settings: 500 cells/well, 48 h at 37° C., 250 μM aminoguanidine
Method: (§2) DFMO was dosed to give 50% relative viability versus an untreated control, i.e. DFMO is dosed at its IC50 value. Exogenous spermidine (Spd, 1 μM) is added to the DFMO treated cells and provided significant rescue of these cells to >80% viability depending upon the cell line. A successful PTI was able to block the entry of the spermidine rescuing agent into DFMO treated cells and result in a cell viability near the DFMO control (i.e. 50% viability). The inventors identified the following cell viabilities: DFMO only (50%), Spd only (100%), PTI (>90%), DFMO+Spd (>80%), DFMO+Spd+PTI (50%). The PTI provides a dose dependent lowering of cell viability in the presence of DFMO and a rescuing dose of spermidine. […] Identifying cells that respond to exogenous spermidine allow this assay to be possible and the c-myc and ATP13A3 biomarkers help predict these outcomes as well as the Vmax measurements for ^3H Spd import.

DFMO-treated cells = assay: Polyamine transport inhibitor assay 2: PTI blocks uptake of rescuing spermidine into DFMO-treated cells; assay type: cell-based
Method: FIG. 6A is a diagram showing an assay wherein the uptake of rescuing dose of spermidine into DFMO-treated cells is blocked by a PTI (GW 5074).
as §2

PanO2 derived tumors = assay: Histology (Ki67, cleaved caspase) of PanO2 derived tumors; assay type: in vivo; settings: PanO2 derived tumors in C57Bl/6 mice
Text: FIG. 14 illustrates histological stained images of Ki67, a proliferation marker, and cleaved caspase in the presence of DFMO or DFMO+ the trimer44NMe PTI

[4] = tested on: BxPC-3 pancreatic cancer cells; assay: Western blot of ATP13A3 and Cav-1 protein levels with DFMO; assay type: cell-based, human; settings: 72 h incubation at 37° C.
Method: (§3) FIGS. 9A-B provide graphical illustrations of the modulation of ATP13A3 and Cav-1, respectively, by DFMO and DFMO+Spermidine in L3.6pl human pancreatic cancer cells after 72 h incubation at 37° C. In FIG. 9A ATP13A3 protein levels after 72 h incubation at 37° C. are shown in L3.6pl (top) and Bx-PC3 (bottom) pancreatic cancer cells in the presence of DFMO or DFMO+Spd as analyzed by Western blot. Expression was normalized using β-actin levels. […] Note an increase in Cav-1 levels would stabilize caveolae at the cell surface and reduce the uptake of polyamines via a caveolin dependent pathway. A decrease in Cav-1 levels would increase polyamine import.

[5] = tested on: L3.6pl pancreatic cancer cells; assay: as above; assay type: cell-based, human; settings: 72 h incubation at 37° C.
Method: as §3

[6] = tested on: MALME-3M cells and MALME-3 control cells; assay: Spermidine competition / percent viability with compound A; assay type: cell-based
Method: Aminoguanidine (AG) at 1 mM was determined to be non-toxic and was incubated with cells for 24 h prior to compound addition. Control represents the untreated cells. All experiments were performed in triplicate. Spermidine (Spd, 100 μM) was non-toxic to both cell lines. […] Compound A is a valid polyamine transport probe.

MALME-3 cells = assay: Cytotoxicity IC50 in matched control cells; assay type: cell-based; settings: in the presence of aminoguanidine (1 mM)
amine oxidases = assay: Metabolic stability to amine oxidases; assay type: in vitro ADME, calf; settings: unmethylated compound judged without the protective aminoguanidine (AG)
Text: (§4) Table 1 compares unmethylated Compound A (containing primary amine termini), and N-methylated Compound A (containing N-methyl termini). […] This is due to the presence of the terminal N-methyl groups in A.

CHO-MG* cells = assay: PTS targeting: cytotoxicity IC50 in PTS-deficient cells; assay type: cell-based
Text: as §4

CHO cells = assay: PTS targeting: cytotoxicity IC50 in PTS-active cells; assay type: cell-based
Text: as §4

L3.6pl pancreatic tumor = assay: Human L3.6pl pancreatic tumor in nude mice, combination with 1% DFMO; assay type: in vivo; settings: GW5074 1 mg/kg i.p. 5 days per week for 2 weeks, trimer44NMe equimolar (1.8 mg/kg), 1% DFMO in drinking water
Method: The extension of these findings is that cells which have high c-myc and ATP13A3 expression will be sensitive to the therapy described herein. These therapies were evaluated in vivo.
The first set of experiments was in nude mice (immune compromised) using human L3.6pl pancreatic cancer cells which have high ATP13A3 and high c-myc expression and high Vmax. […] Note TTI′ in FIGS. 12 and 13 refer to the polyamine-based trimer44NMe PTI compound.
0.5×10^6 L3.6pl tumor cells were injected into the pancreas of nude mice and allowed to grow for 1 week. 1% DFMO was administered in the drinking water (changed weekly) for 2 weeks. […] Mice were collected and pancreatic tissue/tumor, with spleen attached, was weighed.

[7] = MALME-3M, 96 h, read-out: 96 h IC50
[8] = with aminoguanidine (AG), read-out: CHO-MG* IC50 w/ AG
[9] = without aminoguanidine (AG), read-out: CHO-MG* IC50 w/o AG
[10] = with aminoguanidine (AG), read-out: CHO IC50 w/ AG
[11] = without aminoguanidine (AG), read-out: CHO IC50 w/o AG
[12] = in the presence of aminoguanidine (1 mM)

CNCCCCNCCCCNCc1c2ccccc2c(CNCCCCNCCCCNC)c2ccccc12 [Compound B]
sensitivity of MALME-3M in NCI 60-cancer cell screen (melanoma cell lines; 10 μM): most sensitive cell line | IC50 (MALME-3M cells; [7]): 0.062 µM

difluoromethylornithine [DFMO]
IC50 (L3.6pl cells [1]): 8000 µM | IC50 [2]: < 5000 µM | effectiveness against L3.6pl cells (L3.6pl cells [3]; DFMO alone): effective | cell viability (DFMO-treated cells; DFMO dosed at its IC50, Spd 1 μM, PTI not above its IC10, relative to untreated control): 50% | proliferation (Ki67 histological stain) (PanO2 derived tumors): reduced proliferation | relative ATP13A3 expression (normalized using β-actin) ([4]; Bx-PC3, 48 h IC50 DFMO dose (e.g., 8 mM)): significant increase | levels of Cav-1 ([4]; BxPC-3, in the presence of DFMO): not dramatically changed | relative ATP13A3 expression (normalized using β-actin) ([5]; 48 h IC50 DFMO dose (e.g., 8 mM)): significant increase | levels of Cav-1 ([5]; in the presence of DFMO): not dramatically changed

CNCCCCNCCCCNCc1ccc(CNCCCCNCCCCNC)c2ccccc12 [Compound A]
competition with spermidine for cell entry (percent viability) ([6]; 96 h at 37 degrees Celsius, 0.02 μM (MALME-3M cells), 0.8 μM (MALME-3 control cells)): competes with Spd for cell entry | IC50 (MALME-3 cells): 0.82 µM | metabolic stability to amine oxidases (amine oxidases): metabolically stable | IC50 (CHO-MG* cells; [8]): > 100 µM | IC50 (CHO-MG* cells; [9]): > 100 µM | CHO-MG*/CHO IC50 ratio (selectivity for CHO cells with active PTS) (CHO cells; summary bound, also when AG is removed): > 2200 | IC50 ratio w/ AG (CHO-MG*/CHO) (CHO cells; with aminoguanidine (AG)): >2272 | IC50 (CHO cells; [10]): 0.044 µM | IC50 ratio w/o AG (CHO-MG*/CHO) (CHO cells; without aminoguanidine (AG)): >2564 | IC50 (CHO cells; [11]): 0.039 µM | sensitivity of MALME-3M in NCI 60-cancer cell screen (melanoma cell lines; 10 μM): most sensitive cell line | growth of cancer cell lines in NCI 60-cancer cell screen (melanoma cell lines; 10 μM, MALME-3M, M14, MDA-MB-435, SK-MEL2, SK-MEL-28, SK-MEL-5, UACC-257, UACC-62): decreased growth of cancer cell lines | sensitivity of LOX IMVI melanoma cell line (melanoma cell lines; LOX IMVI (high Cav-1, low Cav-2)): most resistant melanoma cell line | IC50 (MALME-3M cells; [7]): 0.014 µM | IC50 ratio (MALME-3/MALME-3M) (MALME-3M cells; [12]): 59

N=C(N)NN [Aminoguanidine, aminoguanidine]
toxicity to cells ([6]; 1 mM, incubated with cells for 24 h prior to compound addition): non-toxic

NCCCCNCCCCNCc1ccc(CNCCCCNCCCCN)c2ccccc12 [Compound A w/o Me]
IC50 (MALME-3 cells): 1.21 µM | metabolic stability to amine oxidases (amine oxidases): less selective and less metabolically stable | IC50 (CHO-MG* cells; [8]): > 100 µM | IC50 (CHO-MG* cells; [9]): 52.1 µM | IC50 ratio w/ AG (CHO-MG*/CHO) (CHO cells; with aminoguanidine (AG)): >4545 | IC50 (CHO cells; [10]): 0.022 µM | IC50 ratio w/o AG (CHO-MG*/CHO) (CHO cells; without aminoguanidine (AG)): 9.5 | IC50 (CHO cells; [11]): 5.5 µM | IC50 ratio (MALME-3/MALME-3M) (MALME-3M cells; [12]): 71 | IC50 (MALME-3M cells; in the presence of aminoguanidine (1 mM), read-out: MALME-3M IC50): 0.018 µM

O=C1Nc2ccc(I)cc2/C1=C/c1cc(Br)c(O)c(Br)c1 [GW5074]
effectiveness against L3.6pl cells (L3.6pl cells [3]; in combination with DFMO): effective | reduction in tumor size (L3.6pl pancreatic tumor): statistically significant reduction

CNCCCCNCCCCNCc1cc(CNCCCCNCCCCNC)cc(CNCCCCNCCCCNC)c1 [Compound 6b]
metabolic stability to amine oxidases (amine oxidases): enhanced stability | effectiveness as PTI agent in vitro (DFMO-treated cells; in vitro): effective | proliferation (Ki67 histological stain) (PanO2 derived tumors): reduced proliferation | cleaved caspase staining (apoptosis) (PanO2 derived tumors; PTI by itself): apoptosis is occurring
